Assay results as given in patent publication US20230074545A1, “TREATMENT OF CANCER WITH CDK12/13 INHIBITORS” (Kinnate Biopharma Inc., priority 2019, published 2023).

Legend:
[1] = molecular target: T1, EPHA3 (Homo sapiens, UniProt P29320); assay: Radiometric kinase panel; assay type: biochemical
T1 construct: either as full-length or enzymatically active fragments; purchased ProQinase GmbH (Reaction Biology)
Method in brief: (§1)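 Activity was measured radiometrically from [gamma-33P]-ATP incorporation into substrate. The kinases were recombinant human GST- or His-tagged proteins, full-length or active fragments, expressed in Sf9 or E. coli. Compound in 10% DMSO was added before the enzyme/substrate mix, which started the reaction.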

[2] = molecular target: T2, ITK (Homo sapiens, UniProt Q08881); assay: Radiometric kinase panel; assay type: biochemical
T2 construct: purchased ProQinase GmbH (Reaction Biology); host or cells: Sf9 insect cells or E. coli (not specified per kinase)
Method in brief: as §1

[3] = molecular target: T3, FLT3 (Homo sapiens, UniProt P36888); assay: Radiometric kinase panel; assay type: biochemical
T3 construct: either as full-length or enzymatically active fragments; purchased ProQinase GmbH (Reaction Biology)
Method in brief: as §1

[4] = molecular target: T4, MARK2 (Homo sapiens, UniProt Q7KZI7); assay: Radiometric kinase panel; assay type: biochemical
T4 construct: either as full-length or enzymatically active fragments; purchased ProQinase GmbH (Reaction Biology)
Method in brief: as §1

[5] = molecular target: T5, PDK1 (Homo sapiens, UniProt O15530); assay: Radiometric kinase panel; assay type: biochemical
T5 construct: either as full-length or enzymatically active fragments; purchased ProQinase GmbH (Reaction Biology)
Method in brief: as §1

[6] = molecular target: T6, RPS6KA4 (Homo sapiens, UniProt O75676); assay: Radiometric kinase panel; assay type: biochemical
T6 construct: either as full-length or enzymatically active fragments; purchased ProQinase GmbH (Reaction Biology)
Method in brief: as §1

[7] = molecular target: T7, MINK1 (Homo sapiens, UniProt Q8N4C8); assay: Radiometric kinase panel; assay type: biochemical
T7 construct: either as full-length or enzymatically active fragments; purchased ProQinase GmbH (Reaction Biology)
Method in brief: as §1

[8] = molecular target: T8, NEK3 (Homo sapiens, UniProt P51956); assay: Radiometric kinase panel; assay type: biochemical
T8 construct: either as full-length or enzymatically active fragments; purchased ProQinase GmbH (Reaction Biology)
Method in brief: as §1

[9] = molecular target: T9, CLK3 (Homo sapiens, UniProt P49761); assay: Radiometric kinase panel; assay type: biochemical
T9 construct: either as full-length or enzymatically active fragments; purchased ProQinase GmbH (Reaction Biology)
Method in brief: as §1

[10] = molecular target: T10, CDK9/CycK (Homo sapiens, UniProt P50750); assay: Radiometric kinase panel; assay type: biochemical
T10 construct: either as full-length or enzymatically active fragments; purchased ProQinase GmbH (Reaction Biology)
T10 sequence (P50750 whole entry, the tested form may be a part): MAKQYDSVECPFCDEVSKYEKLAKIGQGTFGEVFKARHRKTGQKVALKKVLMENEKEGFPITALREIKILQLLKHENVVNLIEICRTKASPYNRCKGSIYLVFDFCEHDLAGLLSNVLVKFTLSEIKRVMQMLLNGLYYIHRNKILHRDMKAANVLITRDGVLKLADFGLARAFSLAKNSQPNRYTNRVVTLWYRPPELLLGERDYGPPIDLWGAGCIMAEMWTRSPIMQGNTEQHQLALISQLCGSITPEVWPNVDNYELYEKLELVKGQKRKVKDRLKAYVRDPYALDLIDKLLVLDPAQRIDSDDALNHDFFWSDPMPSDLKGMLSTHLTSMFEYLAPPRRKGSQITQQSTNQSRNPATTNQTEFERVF
T10 sequence (O75909 whole entry partner, the tested form may be a part): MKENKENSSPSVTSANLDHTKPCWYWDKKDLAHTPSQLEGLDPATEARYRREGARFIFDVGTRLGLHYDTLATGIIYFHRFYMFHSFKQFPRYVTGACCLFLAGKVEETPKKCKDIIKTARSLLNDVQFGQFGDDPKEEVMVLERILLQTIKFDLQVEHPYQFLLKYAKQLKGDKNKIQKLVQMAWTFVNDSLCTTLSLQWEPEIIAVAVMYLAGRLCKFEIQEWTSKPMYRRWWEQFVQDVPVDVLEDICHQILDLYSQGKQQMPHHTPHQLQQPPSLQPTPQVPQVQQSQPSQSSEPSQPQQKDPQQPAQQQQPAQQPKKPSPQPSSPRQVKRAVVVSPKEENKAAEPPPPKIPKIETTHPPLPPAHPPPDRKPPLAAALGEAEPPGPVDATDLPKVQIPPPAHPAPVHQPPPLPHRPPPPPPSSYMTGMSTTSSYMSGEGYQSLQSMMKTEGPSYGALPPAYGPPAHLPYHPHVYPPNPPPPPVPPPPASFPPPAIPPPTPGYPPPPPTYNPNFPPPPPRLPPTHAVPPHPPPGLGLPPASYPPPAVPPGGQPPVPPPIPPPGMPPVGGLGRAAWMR
Method in brief: as §1

[11] = molecular target: T11, BLK (Homo sapiens, UniProt P51451); assay: Radiometric kinase panel; assay type: biochemical
T11 construct: purchased ProQinase GmbH (Reaction Biology)
T11 sequence (P51451 whole entry): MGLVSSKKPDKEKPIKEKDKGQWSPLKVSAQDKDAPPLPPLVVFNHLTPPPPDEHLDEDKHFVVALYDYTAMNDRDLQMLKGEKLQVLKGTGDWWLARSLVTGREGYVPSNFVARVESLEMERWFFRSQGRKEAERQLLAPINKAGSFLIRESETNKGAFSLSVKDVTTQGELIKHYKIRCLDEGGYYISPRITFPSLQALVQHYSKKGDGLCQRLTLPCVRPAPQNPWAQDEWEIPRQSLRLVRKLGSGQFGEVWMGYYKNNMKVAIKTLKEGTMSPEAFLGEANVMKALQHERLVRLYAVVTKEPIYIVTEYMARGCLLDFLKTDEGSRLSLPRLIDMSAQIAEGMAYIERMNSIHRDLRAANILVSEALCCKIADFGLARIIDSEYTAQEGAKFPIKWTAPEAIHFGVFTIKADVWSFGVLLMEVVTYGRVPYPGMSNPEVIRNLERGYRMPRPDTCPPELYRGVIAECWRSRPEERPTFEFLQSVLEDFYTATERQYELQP
Method in brief: as §1

[12] = molecular target: T12, CK2alpha2 (Homo sapiens, UniProt P19784); assay: Radiometric kinase panel; assay type: biochemical
T12 construct: either as full-length or enzymatically active fragments; purchased ProQinase GmbH (Reaction Biology)
T12 sequence (P19784 whole entry, the tested form may be a part): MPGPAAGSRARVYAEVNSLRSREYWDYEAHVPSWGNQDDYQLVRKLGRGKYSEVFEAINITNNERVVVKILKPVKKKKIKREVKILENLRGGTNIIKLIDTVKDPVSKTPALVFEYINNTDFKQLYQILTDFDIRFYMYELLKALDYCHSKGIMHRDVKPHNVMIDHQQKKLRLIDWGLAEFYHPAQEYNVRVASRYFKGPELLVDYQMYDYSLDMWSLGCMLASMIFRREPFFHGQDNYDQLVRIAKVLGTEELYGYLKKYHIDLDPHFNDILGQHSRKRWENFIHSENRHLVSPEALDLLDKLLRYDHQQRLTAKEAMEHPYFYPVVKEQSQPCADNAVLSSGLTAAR
Method in brief: as §1

[13] = molecular target: T13, EPHA2 (Homo sapiens, UniProt P29317); assay: Radiometric kinase panel; assay type: biochemical
T13 construct: either as full-length or enzymatically active fragments; purchased ProQinase GmbH (Reaction Biology)
Method in brief: as §1

[14] = molecular target: T14, ERK1 (Homo sapiens, UniProt P27361); assay: Radiometric kinase panel; assay type: biochemical
T14 construct: either as full-length or enzymatically active fragments; purchased ProQinase GmbH (Reaction Biology)
T14 sequence (P27361 whole entry, the tested form may be a part): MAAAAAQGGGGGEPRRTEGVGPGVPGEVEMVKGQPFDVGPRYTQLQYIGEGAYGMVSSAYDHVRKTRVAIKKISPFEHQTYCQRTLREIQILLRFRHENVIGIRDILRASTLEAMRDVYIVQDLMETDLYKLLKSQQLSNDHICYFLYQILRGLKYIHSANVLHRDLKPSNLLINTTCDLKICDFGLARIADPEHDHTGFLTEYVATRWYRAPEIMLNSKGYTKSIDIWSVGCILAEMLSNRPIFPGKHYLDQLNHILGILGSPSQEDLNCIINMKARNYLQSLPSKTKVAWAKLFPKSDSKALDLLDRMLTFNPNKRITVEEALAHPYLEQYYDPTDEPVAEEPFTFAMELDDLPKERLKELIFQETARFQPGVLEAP
Method in brief: as §1

[15] = molecular target: T15, FGR (Homo sapiens, UniProt P09769); assay: Radiometric kinase panel; assay type: biochemical
T15 construct: purchased ProQinase GmbH (Reaction Biology)
T15 sequence (P09769 whole entry): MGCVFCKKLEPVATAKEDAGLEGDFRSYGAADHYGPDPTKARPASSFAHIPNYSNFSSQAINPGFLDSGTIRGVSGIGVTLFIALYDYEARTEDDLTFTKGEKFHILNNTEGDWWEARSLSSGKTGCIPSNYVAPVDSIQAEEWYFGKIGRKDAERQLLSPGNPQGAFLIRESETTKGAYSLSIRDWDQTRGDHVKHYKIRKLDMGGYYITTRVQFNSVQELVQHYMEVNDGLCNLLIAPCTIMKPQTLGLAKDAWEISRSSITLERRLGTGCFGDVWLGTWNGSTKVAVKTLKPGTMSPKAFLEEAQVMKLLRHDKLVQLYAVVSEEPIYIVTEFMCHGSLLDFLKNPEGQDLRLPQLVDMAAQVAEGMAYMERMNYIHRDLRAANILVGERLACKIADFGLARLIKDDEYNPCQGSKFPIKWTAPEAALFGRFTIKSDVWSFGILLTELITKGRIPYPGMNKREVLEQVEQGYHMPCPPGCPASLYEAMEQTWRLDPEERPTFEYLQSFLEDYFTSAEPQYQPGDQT
Method in brief: as §1

[16] = molecular target: T16, HIPK4 (Homo sapiens, UniProt Q8NE63); assay: Radiometric kinase panel; assay type: biochemical
T16 construct: either as full-length or enzymatically active fragments; purchased ProQinase GmbH (Reaction Biology); host or cells: Sf9 insect cells or E. coli
T16 sequence (Q8NE63 whole entry, the tested form may be a part): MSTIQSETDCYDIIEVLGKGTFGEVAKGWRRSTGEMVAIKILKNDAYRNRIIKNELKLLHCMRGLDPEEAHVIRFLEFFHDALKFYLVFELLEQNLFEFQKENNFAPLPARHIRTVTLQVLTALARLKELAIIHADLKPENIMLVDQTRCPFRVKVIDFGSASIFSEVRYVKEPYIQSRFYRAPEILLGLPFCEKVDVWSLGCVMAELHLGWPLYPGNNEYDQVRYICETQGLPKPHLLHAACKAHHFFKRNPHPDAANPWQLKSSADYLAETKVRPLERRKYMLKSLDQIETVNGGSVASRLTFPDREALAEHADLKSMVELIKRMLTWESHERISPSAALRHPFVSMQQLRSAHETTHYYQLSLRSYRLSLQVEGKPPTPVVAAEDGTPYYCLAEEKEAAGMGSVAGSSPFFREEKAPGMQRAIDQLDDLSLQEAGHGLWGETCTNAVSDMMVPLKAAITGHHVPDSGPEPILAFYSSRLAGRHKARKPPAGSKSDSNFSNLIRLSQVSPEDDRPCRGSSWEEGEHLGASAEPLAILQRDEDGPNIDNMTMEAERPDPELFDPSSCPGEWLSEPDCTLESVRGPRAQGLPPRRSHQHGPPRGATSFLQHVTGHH
Method in brief: as §1

[17] = molecular target: T17, CSK (Homo sapiens, UniProt P41240); assay: Radiometric kinase panel; assay type: biochemical
T17 construct: either as full-length or enzymatically active fragments; purchased ProQinase GmbH (Reaction Biology)
Method in brief: as §1

[18] = molecular target: T18, CDK2/CycD1 (Homo sapiens, UniProt P24941); assay: Radiometric kinase panel; assay type: biochemical
T18 construct: either as full-length or enzymatically active fragments; purchased ProQinase GmbH (Reaction Biology)
Method in brief: as §1

[19] = molecular target: T19, STK23 (Homo sapiens, UniProt Q9UPE1); assay: Radiometric kinase panel; assay type: biochemical
T19 construct: either as full-length or enzymatically active fragments; purchased ProQinase GmbH (Reaction Biology)
Method in brief: as §1

[20] = molecular target: T20, SGK3 (Homo sapiens, UniProt Q96BR1); assay: Radiometric kinase panel; assay type: biochemical
T20 construct: either as full-length or enzymatically active fragments; purchased ProQinase GmbH (Reaction Biology)
Method in brief: as §1

[21] = molecular target: T21, EPHA5 (Homo sapiens, UniProt P54756); assay: Radiometric kinase panel; assay type: biochemical
T21 construct: either as full-length or enzymatically active fragments; purchased ProQinase GmbH (Reaction Biology)
Method in brief: as §1

[22] = molecular target: T22, SRPK1 (Homo sapiens, UniProt Q96SB4); assay: Radiometric kinase panel; assay type: biochemical
T22 construct: either as full-length or enzymatically active fragments; purchased ProQinase GmbH (Reaction Biology)
Method in brief: as §1

[23] = molecular target: T23, CDK20/CycH (Homo sapiens, UniProt Q8IZL9); assay: Radiometric kinase panel; assay type: biochemical
T23 construct: purchased ProQinase GmbH (Reaction Biology)
T23 sequence (Q8IZL9 whole entry): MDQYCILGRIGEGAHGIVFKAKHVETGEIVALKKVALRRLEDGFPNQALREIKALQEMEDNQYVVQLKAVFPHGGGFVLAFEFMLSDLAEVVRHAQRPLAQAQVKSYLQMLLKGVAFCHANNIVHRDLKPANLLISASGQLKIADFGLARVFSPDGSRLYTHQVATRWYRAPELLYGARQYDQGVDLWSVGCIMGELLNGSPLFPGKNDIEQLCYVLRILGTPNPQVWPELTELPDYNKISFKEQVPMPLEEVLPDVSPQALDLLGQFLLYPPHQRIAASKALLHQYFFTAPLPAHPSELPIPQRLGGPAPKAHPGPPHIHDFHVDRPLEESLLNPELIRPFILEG
T23 sequence (P51946 whole entry partner): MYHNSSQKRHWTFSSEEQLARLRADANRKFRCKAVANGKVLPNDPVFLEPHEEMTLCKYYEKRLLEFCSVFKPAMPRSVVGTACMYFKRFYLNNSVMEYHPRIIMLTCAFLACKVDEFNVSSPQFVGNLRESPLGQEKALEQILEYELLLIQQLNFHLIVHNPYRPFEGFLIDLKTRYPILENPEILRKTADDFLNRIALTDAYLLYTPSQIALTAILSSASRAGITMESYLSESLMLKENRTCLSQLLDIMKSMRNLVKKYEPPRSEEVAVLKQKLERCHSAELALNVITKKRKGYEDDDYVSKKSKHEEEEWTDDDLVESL
Method in brief: as §1

[24] = molecular target: T24, AMPKalpha1 (Homo sapiens, UniProt Q13131); assay: Radiometric kinase panel; assay type: biochemical
T24 construct: either as full-length or enzymatically active fragments; purchased ProQinase GmbH (Reaction Biology)
Method in brief: as §1

[25] = molecular target: T25, SNK (Homo sapiens, UniProt Q9NYY3); assay: Radiometric kinase panel; assay type: biochemical
T25 construct: either as full-length or enzymatically active fragments; purchased ProQinase GmbH (Reaction Biology); host or cells: Sf9 insect cells or E. coli (not specified per kinase)
Method in brief: as §1

[26] = molecular target: T26, BRSK1 (Homo sapiens, UniProt Q8TDC3); assay: Radiometric kinase panel; assay type: biochemical
T26 construct: either as full-length or enzymatically active fragments; purchased ProQinase GmbH (Reaction Biology)
Method in brief: as §1

[27] = test system: BRCA1; assay: DDR gene expression in HCC70 xenograft tumor cells; assay type: in vivo, CB-17 SCID mice; conditions: single intravenous dose 20 or 25 mg/kg; 6 and 24 hours after dose
Procedure: A triple-negative xenograft model of breast cancer was used in this experiment. CB-17 SCID mice were inoculated with the HCC70 cells as the in vivo model for triple negative breast cancer. Each mouse was inoculated subcutaneously on the right flank with HCC70 tumor cells (5×10^6) in 0.1 mL of RPMI-1640 Medium and Matrigel mixture (1:1 ratio) for tumor development. The treatment started when the mean tumor size reached approximately 100-150 mm^3. Mice were treated with a single dose of either vehicle, 20 mg/kg compound 4, or 25 mg/kg of compound 4 intravenously. 0.5, 6, and 24 hours post dose, tumor cells were collected and analyzed for gene expression.

T1 sequence (P29320 21-983): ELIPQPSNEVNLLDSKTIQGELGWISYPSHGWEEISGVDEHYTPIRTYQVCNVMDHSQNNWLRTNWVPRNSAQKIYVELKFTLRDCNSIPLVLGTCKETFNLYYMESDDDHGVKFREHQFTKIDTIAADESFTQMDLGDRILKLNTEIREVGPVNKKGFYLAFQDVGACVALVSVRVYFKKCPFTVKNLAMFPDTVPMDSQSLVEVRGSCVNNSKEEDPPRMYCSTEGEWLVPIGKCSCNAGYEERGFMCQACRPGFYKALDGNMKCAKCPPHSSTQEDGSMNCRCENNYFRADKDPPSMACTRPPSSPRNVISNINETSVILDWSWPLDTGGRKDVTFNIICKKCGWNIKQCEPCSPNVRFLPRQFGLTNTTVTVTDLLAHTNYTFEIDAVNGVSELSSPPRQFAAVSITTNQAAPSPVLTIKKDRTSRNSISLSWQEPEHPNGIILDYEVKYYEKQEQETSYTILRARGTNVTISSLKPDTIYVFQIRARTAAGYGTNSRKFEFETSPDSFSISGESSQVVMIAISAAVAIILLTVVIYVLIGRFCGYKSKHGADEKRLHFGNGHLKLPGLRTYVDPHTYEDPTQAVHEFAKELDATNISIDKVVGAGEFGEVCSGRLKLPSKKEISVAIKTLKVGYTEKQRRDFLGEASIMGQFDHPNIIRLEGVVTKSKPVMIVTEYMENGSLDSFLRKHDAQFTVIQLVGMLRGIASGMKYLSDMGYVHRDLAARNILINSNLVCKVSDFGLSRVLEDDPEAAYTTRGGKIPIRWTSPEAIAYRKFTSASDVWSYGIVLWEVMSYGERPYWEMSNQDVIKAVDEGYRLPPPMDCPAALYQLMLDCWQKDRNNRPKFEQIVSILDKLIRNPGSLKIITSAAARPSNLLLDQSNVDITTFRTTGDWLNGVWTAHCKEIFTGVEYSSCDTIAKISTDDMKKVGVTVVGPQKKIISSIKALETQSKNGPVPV

## C=CC(=O)Nc1ccc(C(=O)N2CC[C@@H](Nc3ncc(C#N)cn3)C2)cc1 [Compound 4, (R)-N-(4-(3-((5-cyanopyrimidin-2-yl)amino)pyrrolidine-1-carbonyl)phenyl)acrylamide]
[1]
  inhibition at 1 µM: 6%
[2]
  inhibition at 1 µM: 1%
[3]
  inhibition at 1 µM: -8%
[4]
  inhibition at 1 µM: 2%
[5]
  inhibition at 1 µM: -7%
[6]
  inhibition at 1 µM: 5%
[7]
  inhibition at 1 µM: 16%
[8]
  inhibition at 1 µM: 6%
[9]
  inhibition at 1 µM: -9%
[10]
  inhibition at 1 µM: 21%
[11]
  inhibition at 1 µM: -2%
[12]
  inhibition at 1 µM: -14%
[13]
  inhibition at 1 µM: -5%
[14]
  inhibition at 1 µM: -4%
[15]
  inhibition at 1 µM: -1%
[16]
  inhibition at 1 µM: 11%
[17]
  inhibition at 1 µM: 7%
[18]
  inhibition at 1 µM: 18%
[19]
  inhibition at 1 µM: 7%
[20]
  inhibition at 1 µM: 5%
[21]
  inhibition at 1 µM: -8%
[22]
  inhibition at 1 µM: -8%
[23]
  inhibition at 1 µM: -2%
[24]
  inhibition at 1 µM: 2%
[25]
  inhibition at 1 µM: 9%
[26]
  inhibition at 1 µM: -4%
[27]
  BRCA1 expression in tumor cells: reduced
